Data published in ChEMBL document CHEMBL2069186, “Getting the MAX out of Computational Models: The Prediction of Unbound-Brain and Unbound-Plasma Maximum Concentrations” (ACS Med Chem Lett, 2012).

Legend:
Plasma = experiment: Dose normalized fCmax in C57BL/6J mouse plasma at 10 mg/kg, po; assay type: ADME, organism-based; set-up: dose 10 mg/kg, route oral; details: in vivo
Brain = experiment: Dose normalized fCmax in C57BL/6J mouse brain at 10 mg/kg, po; assay type: ADME, organism-based; set-up: dose 10 mg/kg, route oral; details: in vivo

fCmax/dose (Plasma): 180 nM
fCmax/dose (Brain): 88 nM
SMILES: Nc1ncnc2c1c(COc1cccc(Cl)c1)nn2C1CCOCC1
